This is an account of results in US7084275B2, “Stereospecific enrichment of heterocyclic enantiomers” (R. T. Alamo Ventures I, LLC, priority 2001, dated 2006).

In assay [1] the target is T1, PDE5 partially purified from human platelets (Homo sapiens, UniProt O76074).
T1 construct: PDE5 partially purified from human platelets was used; from tissue; host or cells: human platelets
The assay is described as follows: PDE5 biochemical enzyme assay ([3H]cGMP hydrolysis). The conditions noted are these: 100 μM test substance; 1 μM cGMP, Tris pH 7.5, 20 min, 30° C. The text has this: (§1) In this example, racemic flosequinan, (R)-(+)-flosequinan, and (S)-(−)-flosequinan were subjected to biochemical enzyme assays to determine their respective percent inhibition of a variety of phosphodiesterases (PDE1-PDE6). The (R)-(+)-flosequinan and (S)-(−)-flosequinan used in this example was resolved by high-performance liquid chromatography (HPLC) as follows. A 5.0 g sample of a racemic mixture of flosequinan was resolved over a 10 cm ID×50 cm L CHIRALCEL OD HPLC column (Chiral Technologies, Exton, Pa.) at 25° C. and with a flow rate of 1.0 ml/minute such that the column pressure was 37 bar. The mobile phase employed was 100% methanol and the detection of the mixture was performed at 270 nm. […] A total of 2.1 g of the (−) enantiomer having an optical purity greater than 99% was produced. A total of 2.3 g of the (+) enantiomer having an optical purity greater than 99% was produced.
PDE5: PDE5 partially purified from human platelets was used. A racemic mixture of flosequinan, and each enantiomer of flosequinan, all at a molar concentration of 100 μM, were independently incubated with 120 μg PDE5 enzyme and 1 μM cGMP containing 0.01 μM [^3H]cGMP in Tris buffer pH 7.5 for 20 minutes at 30° C. The reaction was terminated by boiling for 2 minutes, and the resulting GMP was converted to guanosine by addition of 10 mg/ml snake venom nucleotidase and further incubation at 30° C. for 10 minutes. Unhydrolyzed cGMP was bound to AGI-X2 resin, and the remaining [^3H]guanosine in the aqueous phase was quantitated by scintillation counting.

In assay [2] the target is T2, PDE2 partially purified from human platelets (Homo sapiens, UniProt O00408).
T2 construct: PDE2 partially purified from human platelets was used; from tissue; host or cells: human platelets
T2 sequence (O00408 whole entry): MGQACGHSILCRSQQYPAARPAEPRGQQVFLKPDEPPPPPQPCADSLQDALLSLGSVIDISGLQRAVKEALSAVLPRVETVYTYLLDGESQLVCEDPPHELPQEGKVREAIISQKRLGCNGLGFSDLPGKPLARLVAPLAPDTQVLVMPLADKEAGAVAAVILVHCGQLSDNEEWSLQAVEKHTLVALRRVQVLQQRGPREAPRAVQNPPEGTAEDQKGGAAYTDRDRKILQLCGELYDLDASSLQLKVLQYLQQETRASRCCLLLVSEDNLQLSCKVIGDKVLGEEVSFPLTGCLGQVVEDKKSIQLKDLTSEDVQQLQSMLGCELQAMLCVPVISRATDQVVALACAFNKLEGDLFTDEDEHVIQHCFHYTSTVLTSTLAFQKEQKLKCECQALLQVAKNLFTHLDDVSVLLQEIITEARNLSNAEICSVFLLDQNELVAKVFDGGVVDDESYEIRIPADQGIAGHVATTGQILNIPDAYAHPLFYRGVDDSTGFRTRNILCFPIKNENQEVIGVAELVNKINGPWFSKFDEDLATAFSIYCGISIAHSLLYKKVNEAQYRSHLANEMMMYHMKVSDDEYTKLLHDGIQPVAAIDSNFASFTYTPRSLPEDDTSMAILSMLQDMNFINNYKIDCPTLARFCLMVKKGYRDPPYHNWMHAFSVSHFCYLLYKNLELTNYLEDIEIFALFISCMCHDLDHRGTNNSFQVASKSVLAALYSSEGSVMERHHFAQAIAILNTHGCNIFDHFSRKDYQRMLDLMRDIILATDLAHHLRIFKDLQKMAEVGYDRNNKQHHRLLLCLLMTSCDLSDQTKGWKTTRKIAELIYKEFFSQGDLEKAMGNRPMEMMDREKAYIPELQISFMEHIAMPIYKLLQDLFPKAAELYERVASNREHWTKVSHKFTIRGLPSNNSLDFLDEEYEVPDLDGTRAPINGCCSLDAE
The assay is described as follows: PDE2 biochemical enzyme assay ([3H]cAMP hydrolysis). To be noted: 100 μM test substance; 25 μM cAMP, Tris pH 7.5, 20 min, 30° C.
Excerpt: as §1
(§2) PDE2: PDE2 partially purified from human platelets was used. A racemic mixture of flosequinan, and each enantiomer of flosequinan, all at a molar concentration of 100 μM, were independently incubated with 23 μg PDE2 enzyme, 25 μM cAMP containing 0.05 μM [^3H]cAMP in Tris buffer pH 7.5 for 20 minutes at 30° C. The reaction was terminated by boiling for 2 minutes, and the resulting AMP was converted to adenosine by addition of 10 mg/ml snake venom nucleotidase and further incubation at 30° C. for 10 minutes. Unhydrolyzed cAMP was bound to AGI-X2 resin, and the remaining [^3H]adenosine in the aqueous phase was quantitated by scintillation counting.

For assay [3], the system named is PDE4 partially purified from human U-937 pronocytic cells. Briefly: PDE4 biochemical enzyme assay ([3H]cAMP hydrolysis). The conditions noted are these: 100 μM test substance; 1 μM cAMP, Tris pH 7.5, 20 min, 30° C.
Excerpt: as §1
as §2, with “PDE4: PDE4” for “PDE2: PDE2”, “U-937 pronocytic cells” for “platelets”, “20” for “23”, “PDE4 enzyme and 1” for “PDE2 enzyme, 25”, “0.01” for “0.05”

Assay [4] has as its system PDE1 partially purified from bovine heart. The assay is described as follows: PDE1 biochemical enzyme assay ([3H]cAMP hydrolysis). The conditions noted are these: 100 μM test substance; 1.0 μM [3H]cAMP, calmodulin, Tris pH 7.5, 20 min, 30° C.
Excerpt: as §1
as §2, with “PDE1: PDE1” for “PDE2: PDE2”, “bovine heart” for “human platelets”, “13” for “23”, “PDE1” for “PDE2”, “1.0” for “25 μM cAMP containing 0.05”, “[^3H]cAMP and Cal2/calmodulin” for “[^3H]cAMP”

Assay [5] deals with T3, PDE3 partially purified from human platelets (Homo sapiens, UniProt Q14432).
T3 construct: PDE3 partially purified from human platelets was used; from tissue; host or cells: human platelets
T3 sequence (Q14432 whole entry): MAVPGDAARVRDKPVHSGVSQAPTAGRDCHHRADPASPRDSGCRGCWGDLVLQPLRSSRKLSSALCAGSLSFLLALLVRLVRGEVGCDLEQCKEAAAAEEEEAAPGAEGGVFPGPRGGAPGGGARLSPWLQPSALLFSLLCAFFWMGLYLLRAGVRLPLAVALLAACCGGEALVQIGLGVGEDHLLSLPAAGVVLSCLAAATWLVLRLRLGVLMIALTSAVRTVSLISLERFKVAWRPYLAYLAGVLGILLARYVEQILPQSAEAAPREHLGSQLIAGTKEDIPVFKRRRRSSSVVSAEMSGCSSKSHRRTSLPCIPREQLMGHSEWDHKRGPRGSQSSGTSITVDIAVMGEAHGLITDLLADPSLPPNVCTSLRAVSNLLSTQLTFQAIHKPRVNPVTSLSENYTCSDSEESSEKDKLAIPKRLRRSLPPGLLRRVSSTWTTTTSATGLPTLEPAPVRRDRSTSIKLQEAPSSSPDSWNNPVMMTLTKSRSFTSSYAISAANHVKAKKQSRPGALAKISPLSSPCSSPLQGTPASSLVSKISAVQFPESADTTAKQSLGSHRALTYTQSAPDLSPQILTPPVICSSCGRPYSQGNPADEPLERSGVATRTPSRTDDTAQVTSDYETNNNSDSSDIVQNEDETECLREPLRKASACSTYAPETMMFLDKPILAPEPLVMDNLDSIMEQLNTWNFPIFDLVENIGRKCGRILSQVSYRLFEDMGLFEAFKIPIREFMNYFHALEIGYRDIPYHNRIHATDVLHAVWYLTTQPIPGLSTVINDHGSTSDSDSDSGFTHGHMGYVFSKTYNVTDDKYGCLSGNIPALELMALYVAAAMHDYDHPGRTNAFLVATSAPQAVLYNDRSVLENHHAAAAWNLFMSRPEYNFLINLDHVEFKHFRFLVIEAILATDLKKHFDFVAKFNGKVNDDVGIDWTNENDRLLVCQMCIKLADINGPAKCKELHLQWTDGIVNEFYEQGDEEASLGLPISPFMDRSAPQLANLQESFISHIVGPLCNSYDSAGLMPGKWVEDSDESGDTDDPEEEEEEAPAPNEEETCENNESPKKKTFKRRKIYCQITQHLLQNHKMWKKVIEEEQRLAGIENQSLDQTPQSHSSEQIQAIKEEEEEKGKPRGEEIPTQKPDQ
Briefly: PDE3 biochemical enzyme assay ([3H]cAMP hydrolysis). The conditions noted are these: 100 μM test substance; 1 μM cAMP, Tris pH 7.5, 20 min, 30° C.
Excerpt: as §1
PDE3: PDE3 partially purified from human platelets was used. A racemic mixture of flosequinan, and each enantiomer of flosequinan, all at a molar concentration of 100 μM, were independently incubated with 13 μg PDE3 enzyme and 1 μM cAMP containing 0.01 μM [^3H]cAMP in Tris buffer pH 7.5 for 20 minutes at 30° C. […] Unhydrolyzed cAMP was bound to AGI-X2 resin, and the remaining [^3H]adenosine in the aqueous phase was quantitated by scintillation counting.

In assay [6] the target is T4, PDE6 partially purified from bovine retinal rod and activated by trypsin (Bos taurus, UniProt P11541+P23439).
T4 construct: from tissue; host or cells: bovine retinal rod
T4 sequence (P11541 2-856 limits assumed): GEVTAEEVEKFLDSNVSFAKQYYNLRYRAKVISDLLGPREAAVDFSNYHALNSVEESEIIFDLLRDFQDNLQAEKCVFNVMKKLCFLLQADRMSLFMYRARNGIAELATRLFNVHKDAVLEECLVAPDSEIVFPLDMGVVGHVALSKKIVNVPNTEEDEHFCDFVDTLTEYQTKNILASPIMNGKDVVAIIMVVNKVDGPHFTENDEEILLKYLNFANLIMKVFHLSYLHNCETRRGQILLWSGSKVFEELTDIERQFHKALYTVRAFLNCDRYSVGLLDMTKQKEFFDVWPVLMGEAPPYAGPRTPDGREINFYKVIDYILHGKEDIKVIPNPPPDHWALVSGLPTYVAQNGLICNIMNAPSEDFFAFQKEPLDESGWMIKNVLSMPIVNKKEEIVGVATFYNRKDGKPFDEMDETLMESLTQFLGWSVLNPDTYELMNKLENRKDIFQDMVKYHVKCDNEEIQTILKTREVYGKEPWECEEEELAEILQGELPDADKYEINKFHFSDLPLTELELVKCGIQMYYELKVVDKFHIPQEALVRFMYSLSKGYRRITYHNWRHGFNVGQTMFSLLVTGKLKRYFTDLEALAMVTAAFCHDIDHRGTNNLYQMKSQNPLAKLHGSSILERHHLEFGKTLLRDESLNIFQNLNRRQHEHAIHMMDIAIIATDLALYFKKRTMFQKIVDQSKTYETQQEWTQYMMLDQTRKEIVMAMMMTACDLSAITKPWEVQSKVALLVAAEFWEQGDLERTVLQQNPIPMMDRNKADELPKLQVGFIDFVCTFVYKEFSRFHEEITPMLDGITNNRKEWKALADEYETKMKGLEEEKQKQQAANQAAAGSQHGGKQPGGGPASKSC
T4 sequence (P23439 2-850 limits assumed): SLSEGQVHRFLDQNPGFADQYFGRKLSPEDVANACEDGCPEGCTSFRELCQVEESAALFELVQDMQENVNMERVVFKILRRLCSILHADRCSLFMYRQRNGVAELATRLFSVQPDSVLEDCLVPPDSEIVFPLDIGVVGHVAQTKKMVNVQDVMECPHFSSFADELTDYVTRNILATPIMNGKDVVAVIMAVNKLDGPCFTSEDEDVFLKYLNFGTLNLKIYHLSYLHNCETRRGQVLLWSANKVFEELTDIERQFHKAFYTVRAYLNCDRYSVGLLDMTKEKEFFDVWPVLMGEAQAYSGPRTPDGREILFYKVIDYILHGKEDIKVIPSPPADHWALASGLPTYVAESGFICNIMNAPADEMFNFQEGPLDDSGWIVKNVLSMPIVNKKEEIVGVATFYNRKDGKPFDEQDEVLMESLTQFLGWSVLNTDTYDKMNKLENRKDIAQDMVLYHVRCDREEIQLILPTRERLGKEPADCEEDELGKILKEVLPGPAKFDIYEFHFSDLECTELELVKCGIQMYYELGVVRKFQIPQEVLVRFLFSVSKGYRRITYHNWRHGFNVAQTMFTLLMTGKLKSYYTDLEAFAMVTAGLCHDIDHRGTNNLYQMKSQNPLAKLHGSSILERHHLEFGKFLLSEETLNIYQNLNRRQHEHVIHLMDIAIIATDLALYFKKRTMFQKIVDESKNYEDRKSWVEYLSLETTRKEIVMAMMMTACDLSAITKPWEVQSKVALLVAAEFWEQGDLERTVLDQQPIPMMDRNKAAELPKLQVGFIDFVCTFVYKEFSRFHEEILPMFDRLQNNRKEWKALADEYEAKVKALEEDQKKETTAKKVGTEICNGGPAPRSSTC
The assay is described as follows: PDE6 biochemical enzyme assay ([3H]cGMP hydrolysis). The conditions noted are these: 100 μM test substance; 100 μM cGMP, Tris pH 7.5, 20 min, 30° C.
Excerpt: as §1
PDE6: PDE6 partially purified from bovine retinal rod and activated by trypsin was used. A racemic mixture of flosequinan, and each enantiomer of flosequinan, all at a molar concentration of 100 μM, were independently incubated with 0.2 μg/ml active PDE6 and 100 μM cGMP containing 0.1 μM [^3H]cGMP in Tris buffer pH 7.5 for 20 minutes at 30° C. […] Unhydrolyzed cGMP was bound to AGI-X2 resin, and [^3H]guanosine remaining in the aqueous phase was quantitated by scintillation counting.

As a reminder, the inhibition is the percentage by which the read-out fell short of the control. Low readings indicate a response near the control, high ones a response far below the control.

In the case of `Cn1cc([S+](C)[O-])c(=O)c2ccc(F)cc21` (racemic) [racemic mixture of flosequinan, 7-fluoro-1-methyl-3-methylsulfinyl-4-quinolone, reference compound], the values for the inhibition at 100 µM in assay [1] and in assay [2] were 11% and 18%, respectively. Also, in assay [3], the “% Inhibition of PDE4” value amounted to 24%. In addition, the “% Inhibition of PDE1” value in assay [4] turned out to be 31%.
For `Cn1cc([S@@+](C)[O-])c(=O)c2ccc(F)cc21` [(+)-flosequinan, (R)-(+)-7-fluoro-1-methyl-3-methylsulfinyl-4-quinolone], the values for the inhibition at 100 µM in assay [1], in assay [2] and in assay [5] were 17%, 18% and 32%, respectively. Besides, the “% Inhibition of PDE4” value in assay [3] was 6%. In assay [4], the “% Inhibition of PDE1” value is given as 28%. The “% Inhibition of PDE6” value in assay [6] is 22%.
In the case of `Cn1cc([S@+](C)[O-])c(=O)c2ccc(F)cc21` [(−)-flosequinan, (S)-(−)-7-fluoro-1-methyl-3-methylsulfinyl-4-quinolone], the inhibition at 100 µM was 10% in assay [1], 13% in assay [2] and 5% in assay [5]. In assay [3], the “% Inhibition of PDE4” value is recorded as 1%. Moreover, in assay [4], the “% Inhibition of PDE1” value is listed as 11%.
